How the values were obtained:
barnyardgrass = test: Test B preemergence/postemergence greenhouse plant response rating 0 to 10; assay type: in vivo, Echinochloa crus-galli; details: 0 to 10 scale
Outline: (§1)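 Both application timings were run together: seeds got compound preemergence, and established seedlings (two to eighteen cm) got it postemergence. Non-phytotoxic solvent carried the chemical. Ratings are visual, versus controls, at twelve to sixteen days.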

giant foxtail = test: as above; assay type: in vivo, Setaria faberii; details: 0 to 10 scale
Outline: as §1

lambsquarters = test: as above; assay type: in vivo, Chenopodium album; details: 0 to 10 scale
Outline: as §1

sugar beet = test: as above; assay type: in vivo, Beta vulgaris; details: 0 to 10 scale
Outline: as §1

velvetleaf [1] = test: as above; assay type: in vivo, Abutilon theophrasti; details: 0 to 10 scale
Outline: as §1

cotton = test: Test C preemergence/postemergence greenhouse plant response rating 0 to 100; assay type: in vivo, Gossypium hirsutum; details: for Plant response rating, Cotton: 0 to 100 scale
From the text: (§2) The compounds evaluated in this test were formulated in a non-phytoxic solvent and applied to the soil surface before plant seedlings emerged (preemergence application), to water that covered the soil surface (flood application), and to plants that were in the one-to-four leaf stage (postemergence application). A sandy loam soil was used for the preemergence and postemergence tests, while a silt loam soil was used in the flood test. Water depth was approximately 2.5 cm for the flood test and was maintained at this level for the duration of the test. Plant species in the preemergence and postemergence tests consisted of barley (Hordeum vulgare), bedstraw (Galium aparine), blackgrass (Alopecurus myosuroides), chickweed (Stellaria media), corn (Zea mays), cotton (Gossypium hirsutum), crabgrass (Digitaria sanguinalis), downy brome (Bromus tectorum), giant foxtail (Setaria faberii), lambsquarters (Chenopodium album), morningglory (Ipomoea hederacea), pigweed ([…]), rape (Brassica napus), ryegrass (Lolium multiflorum), sorghum (Sorghum bicolor), soybean (Glycine max), speedwell (Veronica persica), sugar beet (Beta vulgaris), velvetleaf (Abutilon theophrasti), wheat (Triticum aestivum), wild buckwheat (Polygonum convolvulus), and wild oat (Avena fatua). All plant species were planted one day before application of the compound for the preemergence portion-of this test. Plantings of these species were adjusted to produce plants of appropriate size for the post-emergence portion of the test. […] All plant species were grown using normal greenhouse practices. Visual evaluations of injury expressed on treated plants, when compared to untreated controls, were recorded approximately fourteen to twenty one days after application of the test compound. […] A dash (-) response means no test result.

crabgrass = test: as above; assay type: in vivo, Digitaria sanguinalis; details: for Plant response rating, Crabgrass: 0 to 100 scale
From the text: as §2

pigweed = test: as above; assay type: in vivo, Amaranthusretroflexus; details: for Plant response rating Pigweed: 0 to 100 scale
From the text: as §2

sorghum = test: as above; assay type: in vivo, Sorghum bicolor; details: for Plant response rating, Sorghum: 0 to 100 scale
From the text: as §2

velvetleaf [2] = test: as above; assay type: in vivo, Abutilon theophrasti; details: for Plant response rating, Velvetleaf: 0 to 100 scale
From the text: as §2

wild oat = test: as above; assay type: in vivo, Avena fatua; details: for Plant response rating, Wild oat: 0 to 100 scale
From the text: as §2

C#CCN1C(=O)COc2cc(F)c(-c3nn4c(c3Br)CCCC4)cc21 [Compound 56]
Plant response rating, Barnyardgrass (barnyardgrass; POSTEMERGENCE, Rate 10 g/ha): 3
Plant response rating, Barnyardgrass (barnyardgrass; POSTEMERGENCE, Rate 50 g/ha): 4
Plant response rating, Barnyardgrass (barnyardgrass; PREEMERGENCE, Rate 10 g/ha): 0
Plant response rating, Barnyardgrass (barnyardgrass; PREEMERGENCE, Rate 50 g/ha): 0
Plant response rating, Giant foxtail (giant foxtail; POSTEMERGENCE, Rate 10 g/ha): 4
Plant response rating, Giant foxtail (giant foxtail; POSTEMERGENCE, Rate 50 g/ha): 6
Plant response rating, Giant foxtail (giant foxtail; PREEMERGENCE, Rate 10 g/ha): 0
Plant response rating, Giant foxtail (giant foxtail; PREEMERGENCE, Rate 50 g/ha): 0
Plant response rating, Lambsquarter (lambsquarters; POSTEMERGENCE, Rate 10 g/ha): 10
Plant response rating, Lambsquarter (lambsquarters; POSTEMERGENCE, Rate 50 g/ha): 10
Plant response rating, Lambsquarter (lambsquarters; PREEMERGENCE, Rate 50 g/ha): 10
Plant response rating, Sugar beet (sugar beet; POSTEMERGENCE, Rate 10 g/ha): 10
Plant response rating, Sugar beet (sugar beet; POSTEMERGENCE, Rate 50 g/ha): 10
Plant response rating, Sugar beet (sugar beet; PREEMERGENCE, Rate 50 g/ha): 9
Plant response rating, Velvetleaf (velvetleaf [1]; POSTEMERGENCE, Rate 10 g/ha): 9
Plant response rating, Velvetleaf (velvetleaf [1]; POSTEMERGENCE, Rate 50 g/ha): 9
Plant response rating, Velvetleaf (velvetleaf [1]; PREEMERGENCE, Rate 50 g/ha): 10
Plant response rating, Cotton (cotton; POSTEMERGENCE, 62 g/ha): 100
Plant response rating (0 to 100), Cotton (cotton; POSTEMERGENCE, Rate 1 g/ha): 100
Plant response rating (0 to 100), Cotton (cotton; POSTEMERGENCE, Rate 4 g/ha): 100
Plant response rating (0 to 100), Cotton (cotton; Rate 16 g/ha, POSTEMERGENCE): 100
Plant response rating, Crabgrass (crabgrass; POSTEMERGENCE, 62 g/ha): 20
Plant response rating (0 to 100), Crabgrass (crabgrass; POSTEMERGENCE, Rate 1 g/ha): 0
Plant response rating (0 to 100), Crabgrass (crabgrass; POSTEMERGENCE, Rate 4 g/ha): 0
Plant response rating (0 to 100), Crabgrass (crabgrass; Rate 16 g/ha, POSTEMERGENCE): 10
Plant response rating Pigweed (pigweed; POSTEMERGENCE, 62 g/ha): 100
Plant response rating (0 to 100), Pigweed (pigweed; POSTEMERGENCE, Rate 1 g/ha): 100
Plant response rating (0 to 100), Pigweed (pigweed; POSTEMERGENCE, Rate 4 g/ha): 100
Plant response rating (0 to 100), Pigweed (pigweed; Rate 16 g/ha, POSTEMERGENCE): 100
Plant response rating, Sorghum (sorghum; POSTEMERGENCE, 62 g/ha): 60
Plant response rating (0 to 100), Sorghum (sorghum; POSTEMERGENCE, Rate 1 g/ha): 20
Plant response rating (0 to 100), Sorghum (sorghum; POSTEMERGENCE, Rate 4 g/ha): 30
Plant response rating (0 to 100), Sorghum (sorghum; Rate 16 g/ha, POSTEMERGENCE): 50
Plant response rating, Velvetleaf (velvetleaf [2]; POSTEMERGENCE, 62 g/ha): 100
Plant response rating (0 to 100), Velvetleaf (velvetleaf [2]; POSTEMERGENCE, Rate 1 g/ha): 100
Plant response rating (0 to 100), Velvetleaf (velvetleaf [2]; POSTEMERGENCE, Rate 4 g/ha): 100
Plant response rating (0 to 100), Velvetleaf (velvetleaf [2]; Rate 16 g/ha, POSTEMERGENCE): 100
Plant response rating, Wild oat (wild oat; POSTEMERGENCE, 62 g/ha): 60
Plant response rating (0 to 100), Wild oat (wild oat; POSTEMERGENCE, Rate 1 g/ha): 30
Plant response rating (0 to 100), Wild oat (wild oat; POSTEMERGENCE, Rate 4 g/ha): 40
Plant response rating (0 to 100), Wild oat (wild oat; Rate 16 g/ha, POSTEMERGENCE): 50

CCCN1C(=O)COc2cc(F)c(-c3nn4c(c3Br)CCCC4)cc21 [Compound 63]
Plant response rating, Barnyardgrass (barnyardgrass; POSTEMERGENCE, Rate 10 g/ha): 3
Plant response rating, Barnyardgrass (barnyardgrass; POSTEMERGENCE, Rate 50 g/ha): 5
Plant response rating, Barnyardgrass (barnyardgrass; PREEMERGENCE, Rate 10 g/ha): 0
Plant response rating, Barnyardgrass (barnyardgrass; PREEMERGENCE, Rate 50 g/ha): 0
Plant response rating, Giant foxtail (giant foxtail; POSTEMERGENCE, Rate 10 g/ha): 3
Plant response rating, Giant foxtail (giant foxtail; POSTEMERGENCE, Rate 50 g/ha): 3
Plant response rating, Giant foxtail (giant foxtail; PREEMERGENCE, Rate 10 g/ha): 0
Plant response rating, Giant foxtail (giant foxtail; PREEMERGENCE, Rate 50 g/ha): 1
Plant response rating, Lambsquarter (lambsquarters; POSTEMERGENCE, Rate 10 g/ha): 9
Plant response rating, Lambsquarter (lambsquarters; POSTEMERGENCE, Rate 50 g/ha): 10
Plant response rating, Lambsquarter (lambsquarters; PREEMERGENCE, Rate 50 g/ha): 10
Plant response rating, Sugar beet (sugar beet; POSTEMERGENCE, Rate 10 g/ha): 10
Plant response rating, Sugar beet (sugar beet; POSTEMERGENCE, Rate 50 g/ha): 10
Plant response rating, Sugar beet (sugar beet; PREEMERGENCE, Rate 50 g/ha): 10
Plant response rating, Velvetleaf (velvetleaf [1]; POSTEMERGENCE, Rate 10 g/ha): 8
Plant response rating, Velvetleaf (velvetleaf [1]; POSTEMERGENCE, Rate 50 g/ha): 10
Plant response rating, Velvetleaf (velvetleaf [1]; PREEMERGENCE, Rate 50 g/ha): 7
Plant response rating, Cotton (cotton; PREEMERGENCE, 62 g/ha): 20
Plant response rating, Cotton (cotton; PREEMERGENCE, 250 g/ha): 70
Plant response rating (0 to 100), Cotton (cotton; PREEMERGENCE, Rate 4 g/ha): 0
Plant response rating (0 to 100), Cotton (cotton; Rate 16 g/ha, PREEMERGENCE): 0
Plant response rating, Crabgrass (crabgrass; PREEMERGENCE, 62 g/ha): 0
Plant response rating, Crabgrass (crabgrass; PREEMERGENCE, 250 g/ha): 70
Plant response rating (0 to 100), Crabgrass (crabgrass; PREEMERGENCE, Rate 4 g/ha): 0
Plant response rating (0 to 100), Crabgrass (crabgrass; Rate 16 g/ha, PREEMERGENCE): 0
Plant response rating Pigweed (pigweed; PREEMERGENCE, 62 g/ha): 100
Plant response rating Pigweed (pigweed; PREEMERGENCE, 250 g/ha): 100
Plant response rating (0 to 100), Pigweed (pigweed; PREEMERGENCE, Rate 4 g/ha): 0
Plant response rating (0 to 100), Pigweed (pigweed; Rate 16 g/ha, PREEMERGENCE): 100
Plant response rating, Sorghum (sorghum; PREEMERGENCE, 250 g/ha): 20
Plant response rating (0 to 100), Sorghum (sorghum; PREEMERGENCE, Rate 4 g/ha): 0
Plant response rating (0 to 100), Sorghum (sorghum; Rate 16 g/ha, PREEMERGENCE): 0
Plant response rating, Velvetleaf (velvetleaf [2]; PREEMERGENCE, 250 g/ha): 100
Plant response rating (0 to 100), Velvetleaf (velvetleaf [2]; PREEMERGENCE, Rate 4 g/ha): 0
Plant response rating (0 to 100), Velvetleaf (velvetleaf [2]; Rate 16 g/ha, PREEMERGENCE): 20
Plant response rating, Wild oat (wild oat; PREEMERGENCE, 250 g/ha): 85
Plant response rating (0 to 100), Wild oat (wild oat; PREEMERGENCE, Rate 4 g/ha): 0
Plant response rating (0 to 100), Wild oat (wild oat; Rate 16 g/ha, PREEMERGENCE): 0

Source: patent US6358885B1, “Substituted phenylheterocyclic herbicides” (Mississippi State University, priority 1992, dated 2002)
